Experiments:
[1] = tested on: MCF7 CARM1 KO cells; experiment: Quantitative MS of ADMA-containing peptides in MCF7 CARM1 KO cells expressing CARM1 28-608 or CARM1 140-608, and in CARM1 KO; assay type: cell-based, human
[2] = tested on: MCF7 cells; experiment: Quantitative nanoLC-MS/MS (TMT) of ADMA-containing peptides, CARM1 KO vs parental; assay type: cell-based, human; parameters: Fold change KO/WT: scale not given here
[3] = CARM1 140-608 versus WT, mean of three replicates (log2)
[4] = KO versus WT, mean of three replicates (log2)
[5] = ADMA-containing peptide, CARM1 knockout (KO) vs wild type (WT) MCF7 cells, 6-plex TMT experiment #1, three biological replicates each, sheet "MCF7"
[6] = CARM1 140-608 vs WT, mean of 3 replicates, log2
[7] = KO vs WT, mean of 3 replicates, log2
[8] = MCF7, CARM1 KO vs WT, three biological replicates each
[9] = ratio on log2 scale, mean of 3 replicates
[10] = MCF7, CARM1 knockout vs wild type, n = 3 each
[11] = CARM1 140-608 vs WT, mean of 3 replicates (log2 scale)
[12] = KO vs WT, mean of 3 replicates (log2 scale)
[13] = MCF7, CARM1 KO (KO1-KO3) vs wild type (WT1-WT3)
[14] = difference of log2 means, CARM1 140-608 vs WT
[15] = difference of log2 means, KO vs WT
[16] = MCF7 CARM1 knockout vs wild type, 3 biological replicates each, values are on log2 scale
[17] = mean, CARM1 140-608 versus WT (log2 scale)
[18] = mean, CARM1 KO versus WT (log2 scale)
[19] = log2 scale ratio, mean of n = 3
[20] = ADMA-containing peptide, MCF7, CARM1 knockout (KO1-3) vs wild type (WT1-3), TMT 6-plex experiment #1

## ASAPAADPPrYTFAPSVSLNK
[1]; [3]
  CARM1 140-608/WT: -4.581
[1]; [4]
  KO/WT: -6.091
[2]; [5]
  Fold change KO/WT: -4.884

## NRPAIArGAAGGGGR
[1]; [6]
  CARM1 140-608/WT: -0.06003
[1]; [7]
  KO/WT: 0.534
[2]; [8]
  Fold change KO/WT: 0.06918

## LHrSPLTFPAWVrPPEAAR
[1]; [9]
  CARM1 140-608/WT: -1.436
  KO/WT: -1.489
[2]; [10]
  Fold change KO/WT: -1.489

## TRNPFLTGLSAPSPTNPFGAGEPGrPTLNQMR
[1]; [9]
  CARM1 140-608/WT: -1.179
  KO/WT: -1.766
[2]; [10]
  Fold change KO/WT: -1.766

## MPTMPMLDIrPGLIPQAPGPrFPLIQPGIPPQR
[1]; [11]
  CARM1 140-608/WT: 0.8902
[1]; [12]
  KO/WT: -2.649
[2]; [13]
  Fold change KO/WT: -2.649

## KSTLKPQPAPQAGPIPVAPIGTLKPQPQPVPASYTTASTSSrPTFNVQVK
[1]; [14]
  CARM1 140-608/WT: -2.692
[1]; [15]
  KO/WT: -3.309
[2]; [16]
  Fold change KO/WT: -3.309

## FSPNPPQQGAVrPQTLNFSSR
[1]; [9]
  CARM1 140-608/WT: 1.2079
  KO/WT: -1.542
[2]; [8]
  Fold change KO/WT: -3.724

## FrLSLFSDLPEDTELQR
[1]; [11]
  CARM1 140-608/WT: -2.025
[1]; [12]
  KO/WT: -2.692
[2]; [13]
  Fold change KO/WT: -2.692

## LLGQRPGPYDRPIGGrGGYYGAGR
[1]; [17]
  CARM1 140-608/WT: 0.09661
[1]; [18]
  KO/WT: 0.2187
[2]; [16]
  Fold change KO/WT: -0.08078

## YCLTAPNYrLK
[1]; [19]
  CARM1 140-608/WT: -1.503
  KO/WT: -1.727
[2]; [20]
  Fold change KO/WT: -0.9585

## RPAQSVNrGGMTR
[1]; [6]
  CARM1 140-608/WT: 0.0581
[1]; [7]
  KO/WT: 0.3659
[2]; [8]
  Fold change KO/WT: 0.2083

## STrGGHMNSGGHAK
[1]; [6]
  CARM1 140-608/WT: 0.5079
[1]; [7]
  KO/WT: 0.07617
[2]; [8]
  Fold change KO/WT: 0.07617

## AYGQQYWGQPGNrGGYrNFYDR
[1]; [17]
  CARM1 140-608/WT: -0.223
[1]; [18]
  KO/WT: 0.1923
[2]; [16]
  Fold change KO/WT: 0.1386

## GQPVGGLrFEGPHGQPVGGLrFDNPR
[1]; [3]
  CARM1 140-608/WT: 0.02925
[1]; [4]
  KO/WT: -0.8726
[2]; [5]
  Fold change KO/WT: -1.132

## ELAPrAHVLSK
[1]; [17]
  CARM1 140-608/WT: -1.733
[1]; [18]
  KO/WT: -2.404
[2]; [10]
  Fold change KO/WT: -2.404

## TSSGLFPrIPLQPQAPVSSIGSPVGTPK
[1]; [6]
  CARM1 140-608/WT: 0.8175
[1]; [7]
  KO/WT: -2.603
[2]; [8]
  Fold change KO/WT: -2.869

## GGrGrGGSGGGGGGGGGGYNR
[1]; [17]
  CARM1 140-608/WT: 0.1837
[1]; [18]
  KO/WT: 0.3356
[2]; [10]
  Fold change KO/WT: -0.05268

## DGLTPVPPLAPAPrPPSSGLPAVLNPrPTLTPGrLPTPTLGTArAPMPTPTLVrPLLK
[1]; [19]
  CARM1 140-608/WT: -0.2727
  KO/WT: -4.325
[2]; [20]
  Fold change KO/WT: -3.645

## QLPNAGPGAPPALGFSrFPAGAR
[1]; [6]
  CARM1 140-608/WT: -1.8557
[1]; [7]
  KO/WT: -2.458
[2]; [8]
  Fold change KO/WT: -2.458

## RPEFMrGGGSGGGR
[1]; [19]
  CARM1 140-608/WT: 0.07419
  KO/WT: 0.64
[2]; [20]
  Fold change KO/WT: 0.64

## SQGAQPQQVTLrLALR
[1]; [3]
  CARM1 140-608/WT: -1.727
[1]; [4]
  KO/WT: -1.987
[2]; [5]
  Fold change KO/WT: -1.987

## YLQTVQYGVHGNFPrLSYPTFFPR
[1]; [17]
  CARM1 140-608/WT: -2.496
[1]; [18]
  KO/WT: -3.476
[2]; [10]
  Fold change KO/WT: -2.556

## GPrFEGNrPDGPrPrYEGHPAEGTK
[1]; CARM1 140-608 versus WT, difference of mean log2 values
  CARM1 140-608/WT: -4.084
[1]; CARM1 KO versus WT, difference of mean log2 values
  KO/WT: -5.484
[2]; CARM1 KO vs wild type MCF7 cells, 3 biological replicates each
  Fold change KO/WT: -5.083

## TVPMGGVrLVTPVTVSAVKPAVTTLVVK
[1]; [17]
  CARM1 140-608/WT: -0.6483
[1]; [18]
  KO/WT: -2.889
[2]; [10]
  Fold change KO/WT: -2.889

## ITVPrLSVGSVTSrPSTPTLGTPTPQTMSVSTK
[1]; [19]
  CARM1 140-608/WT: -1.745
  KO/WT: -2.222
[2]; [20]
  Fold change KO/WT: -2.222

## VGVPPQNPrPSLNSAPSPFNPQGQSQITDPR
[1]; [11]
  CARM1 140-608/WT: -2.085
[1]; [12]
  KO/WT: -2.569
[2]; [13]
  Fold change KO/WT: -2.569

## KLFIGGLSFETTDDSLr
[1]; [17]
  CARM1 140-608/WT: -0.2797
[1]; [18]
  KO/WT: 0.2164
[2]; [10]
  Fold change KO/WT: -0.1026

## NrGAGGFGGGGGTR
[1]; [6]
  CARM1 140-608/WT: 0.06902
[1]; [7]
  KO/WT: 0.4755
[2]; [8]
  Fold change KO/WT: -0.03405

## FGGPVHHQAQrFR
[1]; [9]
  CARM1 140-608/WT: -0.8111
  KO/WT: -0.6051
[2]; [10]
  Fold change KO/WT: -0.6051

## STLKPQPAPQAGPIPVAPIGTLKPQPQPVPASYTTASTSSrPTFNVQVK
[1]; [14]
  CARM1 140-608/WT: -2.676
[1]; [15]
  KO/WT: -3.941
[2]; [16]
  Fold change KO/WT: -3.941

## AGIGVYWGPGHPLNVGIrLPGR
[1]; [11]
  CARM1 140-608/WT: -0.6349
[1]; [12]
  KO/WT: -0.8432
[2]; [13]
  Fold change KO/WT: -0.8432

## APPGGLHAPrLSLEGAArGAAEAK
[1]; [6]
  CARM1 140-608/WT: -2.013
[1]; [7]
  KO/WT: -2.606
[2]; [8]
  Fold change KO/WT: -2.606

## MAPALSGANLTSPrVPLSAYER
[1]; [19]
  CARM1 140-608/WT: -3.667
  KO/WT: -5.009
[2]; [20]
  Fold change KO/WT: -4.135
